What is called EC50 is the concentration giving half of the maximal effect.

The values below come from ChEMBL document CHEMBL5325512, “Sub-stoichiometric Modulation of Viral Targets-Potent Antiviral Agents That Exploit Target Vulnerability” (ACS Med Chem Lett, 2023).

Assay [1] deals with Human immunodeficiency virus 1. Briefly: Antiviral activity against HIV 1 harbouring V370A mutant. Format: functional, organism-based.
In assay [2] the test system is Human immunodeficiency virus 1. Briefly: Antiviral activity against wild type HIV 1 NL4-3. Format: functional, organism-based. As to conditions: Human immunodeficiency virus 1, NL4-3.
Assay [3] deals with Human immunodeficiency virus 1. Briefly: Antiviral activity against wild type HIV 1 in presence of human serum albumin. Format: functional, organism-based.
The subject of assay [4] is Human immunodeficiency virus 1. The assay can be described thus: Antiviral activity against HIV 1 harbouring deltaV370 mutant. Format: functional, organism-based.
Assay [5] has as its system Human immunodeficiency virus 1. Briefly: Antiviral activity against HIV 1 harbouring V362I/V370 mutant. Format: functional, organism-based.
For assay [6], the system named is Human immunodeficiency virus 1. The assay can be described thus: Antiviral activity against HIV1 harbouring T332S/V362I/prR41G mutant. Format: functional, organism-based.
In assay [7] the test system is Human immunodeficiency virus 1. The assay can be described thus: Binding affinity to HIV1 Gag V362I/V370A mutant assessed as dissociation half life.
Assay [8] addresses Human immunodeficiency virus type 1 Gag protein (Human immunodeficiency virus 1) (UniProt Q77YG1). The assay can be described thus: Binding affinity to HIV1 wild type Gag assessed as dissociation half life.
The test system of assay [9] is Human immunodeficiency virus 1. Briefly: Antiviral activity against HIV 1 harbouring R361K/V362I/L363M mutant. Format: functional, organism-based.
Assay [10] in a line: Selectivity ratio of EC50 for antiviral activity against HIV1 harbouring R361K/V362I/L363M mutant to EC50 for antiviral activity wild type HIV1. Format: functional, Human immunodeficiency virus 1.
Assay [11] is described as follows: Selectivity ratio of EC50 for antiviral activity against HIV1 harbouring V362I/V370A mutant to EC50 for antiviral activity against wild type HIV1. Format: functional, Human immunodeficiency virus 1.
Assay [12] relates to Human immunodeficiency virus 1. Briefly: Antiviral activity against wild type HIV 1. Format: functional, organism-based.
For assay [13], the system named is Human immunodeficiency virus 1. The assay can be described thus: Antiviral activity against HIV 1 harbouring A362T/V362I/V370 mutant. Format: functional, organism-based.
Assay [14] can be described thus: Selectivity ratio of EC50 for antiviral activity against HIV1 harbouring A362T/V362I/V370A mutant to EC50 for antiviral activity wild type HIV1. Format: functional, Human immunodeficiency virus 1.
Assay [15] can be described thus: Selectivity ratio of EC50 for antiviral activity against HIV1 harbouring deltaV370A mutant to EC50 for antiviral activity against wild type HIV1. Format: functional, Human immunodeficiency virus 1.
Assay [16] relates to Gag-Pol polyprotein (Human immunodeficiency virus type 1 group M subtype B (isolate HXB2)(HIV-1)), P04585 [A364V]. The assay can be described thus: Binding affinity to HIV1 Gag A364V mutant assessed as dissociation half life. As to conditions: Human immunodeficiency virus 1.
For assay [17], the system named is Human immunodeficiency virus 1. Briefly: Binding affinity to HIV1 Gag deltaV370A mutant assessed as dissociation half life.
For assay [18], the system named is Human immunodeficiency virus 1. The assay can be described thus: Antiviral activity against HIV 1 harbouring A364V mutant. Format: functional, organism-based.
Assay [19] in a line: Selectivity ratio of EC50 for antiviral activity against HIV1 harbouring A364V mutant to EC50 for antiviral activity wild type HIV1. Format: functional, Human immunodeficiency virus 1.
Assay [20] concerns Human immunodeficiency virus 1. The assay can be described thus: Binding affinity to HIV1 Gag V370A/deltaT371 mutant assessed as dissociation half life.
The nature of assay [21]: Selectivity ratio of EC50 for antiviral activity against HIV1 harbouring V370A mutant to EC50 for antiviral activity against wild type HIV1. Format: functional, Human immunodeficiency virus 1.
Assay [22] can be described thus: Selectivity ratio of EC50 for antiviral activity against HIV1 harbouring T332S/V362I/prR41G mutant to EC50 for antiviral activity wild type HIV1. Format: functional, Human immunodeficiency virus 1.
Assay [23] deals with Human immunodeficiency virus 1. The assay can be described thus: Antiviral activity against HIV1 infected in human assessed as reduction in Plasma viremia by measuring HIV1 RNA at 200 mg/kg after 10 days. Format: functional. As to conditions: time 10 day.
Assay [24] has as its system Human immunodeficiency virus 1. The assay can be described thus: Antiviral activity against HIV1 infected in human assessed as reduction in Plasma viremia by measuring HIV1 RNA at 80 mg/kg after 7 days. Format: functional. As to conditions: time 7 day.
Assay [25] relates to Human immunodeficiency virus 1. The assay can be described thus: Antiviral activity against HIV1 infected in human assessed as reduction in Plasma viremia by measuring HIV1 RNA at 10 mg/kg after 10 days. Format: functional. As to conditions: time 10 day.
Assay [26] concerns Gag-Pol polyprotein (Human immunodeficiency virus type 1 group M subtype B (isolate HXB2)(HIV-1)), P04585 [V370A]. The assay can be described thus: Binding affinity to HIV1 Gag V370A mutant assessed as dissociation half life. As to conditions: Human immunodeficiency virus 1.
In assay [27] the test system is Human immunodeficiency virus 1. The assay can be described thus: Antiviral activity against HIV1 infected in human assessed as reduction in Plasma viremia by measuring HIV1 RNA at 40 mg/kg after 7 days. Format: functional. As to conditions: time 7 day.
In assay [28] the test system is Human immunodeficiency virus 1. The assay can be described thus: Antiviral activity against HIV1 infected in human assessed as reduction in Plasma viremia by measuring HIV1 RNA at 140 mg/kg after 7 days. As to conditions: time 7 day. Format: functional.
Assay [29] concerns Gag-Pol polyprotein (Human immunodeficiency virus type 1 group M subtype B (isolate HXB2)(HIV-1)), P04585 [V362I]. The assay can be described thus: Binding affinity to HIV1 Gag V362I mutant assessed as dissociation half life. As to conditions: Human immunodeficiency virus 1.

Turning to `C=C(C)[C@@H]1CC[C@]2(NCCN3CCS(=O)(=O)CC3)CC[C@]3(C)[C@H](CC[C@@H]4[C@@]5(C)CC=C(C6=CCC(C(=O)O)CC6)C(C)(C)[C@@H]5CC[C@]43C)[C@@H]12` (stereo partly specified), the EC50 was found to be 0.7 nM in assay [1], 0.6 nM in assay [2], 9 nM in [3] and 2 nM in assay [4].

Consider `C=C(C)[C@@H]1CC[C@]2(NCCN3CCS(=O)(=O)CC3)CC[C@]3(C)[C@H](CC[C@@H]4[C@@]5(C)CC=C(C6=CC[C@@H](C(=O)O)CC6)C(C)(C)[C@@H]5CC[C@]43C)[C@@H]12`, for which the EC50 was found to be 15 nM in [5]; 3 nM in assay [2]; 5 nM in [3]; 19 nM in assay [6]; 3 nM in [4].

Regarding `C=C(C)[C@@H]1CC[C@]2(NCCN3CCS(=O)(=O)CC3)CC[C@]3(C)[C@H](CC[C@@H]4[C@@]5(C)CC=C(c6ccc(C(=O)O)cc6)C(C)(C)[C@@H]5CC[C@]43C)[C@@H]12` [BMS-955176], the T1/2 was 0.583 h in assay [7]; 0.85 h in assay [8]; less than 1 min in [16]; 0.767 h in [17]; 0.8 h in assay [20]. Further, the EC50 in assay [9] is 552 nM; in assay [1], 6 nM; in assay [12], 5 nM; in [5], greater than 3000 nM; in assay [13] it was greater than 3000 nM; in assay [6], 704 nM. For the same compound, the results for the EC50 in assay [18] and in [4] were greater than 3000 nM and 6 nM, respectively. Moreover, the “Ratio EC50” value was 110 in [10]; greater than 600 in assay [11]; greater than 600 in [14]; 1.2 in assay [15]; greater than 600 in assay [19]; 1.2 in assay [21]. Further, the “Ratio EC50” value in assay [22] was found to be 141.

Regarding `C=C(C)[C@@H]1CC[C@]2(NCCN3CCS(=O)(=O)CC3)CC[C@]3(C)[C@H](CC[C@@H]4[C@@]5(C)CC=C(C6=CC[C@@](CF)(C(=O)O)CC6)C(C)(C)[C@@H]5CC[C@]43C)[C@@H]12` [FIPRAVIRIMAT], the T1/2 in assay [7] was 3.78 h; in assay [8], 6.02 h; in assay [26], 7.23 h; in assay [16], less than 1 min; in [17], 5.25 h; in [29], 4.48 h. The T1/2 in [20] was 7.65 h. Moreover, the Activity in assay [23] was -2; in assay [24], -1; in assay [25], -0.4; in assay [27] it was -1.2; in assay [28], -1.5. Moreover, the concentration for a half-maximal effect (EC50) came to 3 nM in assay [9]; 2 nM in [1]; 3 nM in assay [12]; 3 nM in assay [5]; 26 nM in assay [13]; 7 nM in assay [6]. The EC50 was 274 nM in assay [18] and 3 nM in [4]. The “Ratio EC50” value in assay [10] came to 1; in [11], 1; in assay [14] it was 8.7; in assay [15], 1; in assay [19], 91; in assay [21] it was 0.7. In addition, in assay [22], the “Ratio EC50” value is on record as 2.3.
